For one test, the system named is MUC1-fs. Briefly: Immunofluorescence imaging of MUC1-fs in P cells (Example 2). In kind it is cell-based. The following applies: for EC50: 48 hr incubation, MUC1-fs; for ECMax (%) / Emax: 48 hr; for ECMax (%): DMSO = 0, JQ1 (250 nM) = −100% activity; for Emax: DMSO = 0, JQ1 = −100% activity, in %. As to the method: (§1) P cells were seeded 24 hr prior to compound treatment at a density of 12,000 cells/well in 384 well Cell Carrier Ultra plates (6057308, Perkin Elmer), pre-coated with 0.25 mg/mL Synthemax II SC Substrate (3535, Corning). Compounds were used at 5 doses (35, 3.5, 0.35, 0.035 and 0.0035 μM) for the primary screen and 10 doses (16, 5.6, 1.8, 0.6, 0.21, 0.07, 0.02, 0.008, 0.002 and 0.0008 μM) for the following screens. The compounds, in two replicates, were transferred from compound source plates to the cell plates using the HighRes Pin Tool. DMSO was used as a negative control and JQ1 (250 nM) (a bromodomain inhibitor) was chosen as a positive control, based on earlier studies showing its potent effect on reducing total MUC1 mRNA levels (data not shown). After 48 hr incubation, cells were fixed for 20 min in 4% PFA (Electron Microscopy Sciences) in PBS, washed twice, then permeabilized (10 min) with 0.5% Triton-X100 (X100-100ML, Sigma-Aldrich) in PBS and washed once more. Cells were blocked for 10 min at RT with Blocking solution (100 mM Tris HCL pH8; 150 mM NaCL; 5 g/L Blocking Reagent [11096176001, Roche]), then incubated 90 min at RT with one of the following primary antibodies in Roche Blocking solution: 1:500, monoclonal Fab-A-VSH anti-MUC1-fs, AbD22655.2, Bio-Rad; 1:2000, monoclonal mouse anti-MUC1 (214D4), 05-652-KC, Millipore; 1:1000, monoclonal, Rabbit anti-GM130 (D6B1) XP, 12480, Cell signaling technology. The primary antibody cocktail was incubated at RT for 1.5 hr, followed by four PBS wash cycles. The secondary antibody cocktail contained four components that were all prepared at a 1:1000 dilution in the Roche blocking solution and consisted of Alexa Fluor® 488-conjugated AffiniPure F(ab′)2 Fragment Goat anti-Human IgG, 109-546-097, Jackson Immunoresearch; Alexa Fluor® 647-conjugated Goat anti-Rabbit IgG, A-21246, Thermo Fisher Scientific®; Alexa Fluor® 546 Goat anti-mouse IgG, A-21123, Thermo Fisher Scientific® and Hoechst 33342 stain (62249, Thermo Fisher Scientific®). The secondary antibody cocktail was incubated at RT for 45 min, followed by four PBS wash cycles. Finally, plates were sealed with a Plate Loc plate and stored in Liconic incubator at 10° C. until imaging. Following image analysis, three parameters were selected, i) MUC1-fs and ii) MUC1-wt total cytoplasm intensity (averaged per cell) and iii) cell number as was detected by Hoechst 33342 stained nuclei. The levels of MUC1-fs and MUC1-wt found following DMSO and JQ1 were defined as 0 and −100% activity, respectively. The values obtained for all compounds were normalized accordingly. Cell number was normalized to DMSO control.

In a further test the test system is MUC1-wt. Briefly: Immunofluorescence imaging of MUC1-wt in P cells (Example 2). In kind it is cell-based. To be noted: for EC50: 48 hr incubation, MUC1-wt; for WT ECMax (%) / WT EMax: 48 hr; for WT ECMax (%): DMSO = 0, JQ1 (250 nM) = −100% activity; for WT EMax: DMSO = 0, JQ1 = −100% activity, in %. The protocol: as §1

Counter-ions that a name gives are not always drawn. Like-named read-outs stand apart in the source and are kept apart here.

Turning to “(1R,3S,4S)-spiro[bicyclo[2.2.1]heptane-3,1′-cyclopentan]-2-amine hydrochloride [Compound 209-P1]”, the EC50 with MUC1-fs (read-out: EC50(Spot)) was 0.04 µM; in the test on MUC1-wt (read-out: WT EC50 (Cytoplasm)), over 5.6 µM. Besides, the “ECMax (%)” value in the test on MUC1-fs is listed as −70.66%. Moreover, the “WT ECMax (%)” value in the test with MUC1-wt was −210%.
On to `CC1CCC2(CC1C)C1CCC(C1)C2N` (racemic) [Compound 240, rac-3′,4′-dimethylspiro[bicyclo[2.2.1]heptane-2,1′-cyclohexan]-3-amine], for which the EC50 in the test on MUC1-fs (read-out: EC50) and in the test with MUC1-wt (read-out: WT EC50) was over 16 µM in each case. In addition, in the test with MUC1-fs, the Emax is −34.8. For the same compound, the “WT EMax” value in the test with MUC1-wt is listed as −11.1.
Turning to `Cl.NC1C2CCC(C2)C12CC(O)C(O)C2` (racemic) [Compound 228, rac-3-aminospiro[bicyclo[2.2.1]heptane-2,1′-cyclopentane]-3′,4′-diol hydrochloride], the EC50 with MUC1-fs (read-out: EC50) and in the test on MUC1-wt (read-out: WT EC50) was over 16 µM each time. The compound further displayed an Emax in the test on MUC1-fs of −15.1. Besides, the “WT EMax” value in the test on MUC1-wt is −10.2.
As to `COCC1CCCC2(C1)C1CCC(C1)C2N.Cl` (racemic) [Compound 225-1, rac-3′-(methoxymethyl)spiro[bicyclo[2.2.1]heptane-2,1′-cyclohexan]-3-amine hydrogen chloride], the EC50 in the test on MUC1-fs (read-out: EC50) and in the test on MUC1-wt (read-out: WT EC50) was over 16 µM each time. Also, in the test on MUC1-fs, the Emax is −13.3. Moreover, the “WT EMax” value with MUC1-wt is −15.8.
As to `C[C@@H]1CC[C@]2(C1)[C@H]1CC[C@H](C1)[C@H]2N.Cl` [Compound 211-P1-A], the EC50 was 1.22 µM in the test on MUC1-fs (read-out: EC50(Spot)) and over 5.6 µM in the test on MUC1-wt (read-out: WT EC50 (Cytoplasm)). Besides, the “ECMax (%)” value in the test on MUC1-fs was −87.44%. For the same compound, in the test on MUC1-wt, the “WT ECMax (%)” value turned out to be 9.39%.
Consider `NC1C2CCC(C2)C12CC1CCC2C1` (racemic) [Compound 238-A, rac-2,2′-spirobi[bicyclo[2.2.1]heptan]-3-amine], for which the EC50 is 0.006 µM with MUC1-fs (read-out: EC50) and 1.8 µM with MUC1-wt (read-out: WT EC50). The Emax with MUC1-fs is −108.1. For the same compound, in the test with MUC1-wt, the “WT EMax” value came to 38.7.
Take `CC1(CC2CC2)C2CCC(C2)C1N.Cl` (racemic) [Compound 243-A, rac-3-(cyclopropylmethyl)-3-methylbicyclo[2.2.1]heptan-2-amine hydrochloride]: the EC50 in the test with MUC1-fs (read-out: EC50) and in the test with MUC1-wt (read-out: WT EC50) was over 16 µM in each case. In the test on MUC1-fs (hydrochloride), this compound came in with an Emax of −40.4. In addition, in the test on MUC1-wt (hydrochloride), the “WT EMax” value was found to be 3.2.
Regarding `CC[C@@]1(Cc2ccccc2)[C@H]2CC[C@H](C2)[C@H]1N` [Compound 222-P1, (1R,2R,3R,4S)-3-benzyl-3-ethylbicyclo[2.2.1]heptan-2-amine], in the test on MUC1-fs (read-out: EC50), the EC50 is over 16 µM. This compound also showed an Emax with MUC1-fs of −17.9.
For `NC1C2CCC(C2)C12CCC(O)C2` (racemic) [Compound 249B, rac-3-aminospiro[bicyclo[2.2.1]heptane-2,1′-cyclopentan]-3′-ol], the EC50 in the test on MUC1-fs (read-out: EC50) was 4.14 µM; in the test on MUC1-wt (read-out: WT EC50), over 16 µM. In the test with MUC1-fs, the Emax is given as −72.5. Besides, in the test with MUC1-wt, the “WT EMax” value is given as −6.7.
With `Cl.N[C@@H]1[C@@H]2CC[C@@H](C2)C12CCCC(C(=O)N1CCOCC1)C2` (stereo partly drawn) [Compound 226, ((1S,3R,4R)-3-aminospiro[bicyclo[2.2.1]heptane-2,1′-cyclohexan]-3′-yl)(morpholino)methanone hydrochloride], the EC50 in the test with MUC1-fs (read-out: EC50) and in the test on MUC1-wt (read-out: WT EC50) was over 16 µM in each case. The compound also came in with an Emax in the test on MUC1-fs of 7.8. The “WT EMax” value in the test with MUC1-wt came out at 9.0.
For `Cl.N[C@H]1[C@@H]2CC[C@@H](C2)C12CCCC(C(=O)N1CCOCC1)C2` (stereo partly drawn) [Compound 226-1, ((1S,3S,4R)-3-aminospiro[bicyclo[2.2.1]heptane-2,1′-cyclohexan]-3′-yl)(morpholino)methanone hydrochloride], the EC50 in the test on MUC1-fs (read-out: EC50) and in the test with MUC1-wt (read-out: WT EC50) was over 16 µM in each case. Moreover, the Emax with MUC1-fs is reported as −32.0. In the test on MUC1-wt, the “WT EMax” value is listed as −24.5.
`C[C@H]1CC[C@]2(C1)[C@@H]1CC[C@@H](C1)[C@@H]2N.Cl` [Compound 210-P2-B]: the EC50 is 0.1 µM with MUC1-fs (read-out: EC50(Spot)) and over 16 µM in the test with MUC1-wt (read-out: WT EC50 (Cytoplasm)). The “ECMax (%)” value in the test on MUC1-fs was −66.02%. Besides, the “WT ECMax (%)” value with MUC1-wt was found to be 30.21%.
Take `CC1(C)[C@@H]2CC[C@@H](C2)[C@@H]1N` (single isomer, unassigned) [Compound 201-P2, hydrochloride]: the EC50 with MUC1-fs (read-out: EC50(Spot)) stood at 0.47 µM; with MUC1-wt (read-out: WT EC50 (Cytoplasm)) it was 11.9 µM. Also, the “ECMax (%)” value in the test on MUC1-fs is listed as −85.5%. In addition, the “WT ECMax (%)” value in the test on MUC1-wt came to 68.51%.
Taken in the same sequence, the figures for `C[C@H]1CCC[C@@]2(C1)[C@@H]1CC[C@@H](C1)[C@@H]2N.Cl` [Compound 214-P2-A] were 24 µM, over 32 µM, −24.69% and −7.57%.
In the case of “(1S,3R,4R)-spiro[bicyclo[2.2.1]heptane-3,1′-cyclopentan]-2-amine hydrochloride [Compound 209-P2]”, the EC50 in the test with MUC1-fs (read-out: EC50(Spot)) amounted to 0.01 µM; in the test with MUC1-wt (read-out: WT EC50 (Cytoplasm)) it was 2.06 µM. The “ECMax (%)” value with MUC1-fs is −64.28%. The “WT ECMax (%)” value in the test with MUC1-wt is −210%.
As to “(1S,3R,4R)-spiro[bicyclo[2.2.1]heptane-3,1′-cyclohexan]-2-amine [Compound 212-P2]”, the values for the EC50 with MUC1-fs (read-out: EC50(Spot)) and in the test with MUC1-wt (read-out: WT EC50 (Cytoplasm)) were 0.01 µM and 2.6 µM, respectively. The “ECMax (%)” value with MUC1-fs is listed as −68.36%. For the same compound, the “WT ECMax (%)” value in the test with MUC1-wt was determined as 183.41%.
Turning to `NC1C2CCC(C2)C12CCCCC2` [Compound 212-P1, (1R,3S,4S)-spiro[bicyclo[2.2.1]heptane-3,1′-cyclohexan]-2-amine], the figures for the EC50 with MUC1-fs (read-out: EC50(Spot)) and in the test with MUC1-wt (read-out: WT EC50 (Cytoplasm)) were 1.57 µM and 3.01 µM, respectively. In addition, in the test on MUC1-fs, the “ECMax (%)” value is given as −65.18%. For the same compound, in the test on MUC1-wt, the “WT ECMax (%)” value is on record as 110.73%.
`C[C@H]1CC[C@]2(C1)[C@H]1CC[C@H](C1)[C@H]2N.Cl` [Compound 211-P1-B]: the EC50 was 5 µM in the test with MUC1-fs (read-out: EC50(Spot)) and over 32 µM in the test with MUC1-wt (read-out: WT EC50 (Cytoplasm)). Besides, the “ECMax (%)” value in the test with MUC1-fs is on record as −61.55%. Moreover, the “WT ECMax (%)” value in the test with MUC1-wt was found to be 9.31%.
Take `CC[C@]1(C)[C@H]2CC[C@H](C2)[C@H]1N.Cl` (racemic) [Compound 202-rac]: the figures for the EC50 with MUC1-fs (read-out: EC50(Spot)) and in the test on MUC1-wt (read-out: WT EC50 (Cytoplasm)) were 0.05 µM and 2.11 µM, respectively. Further, the “ECMax (%)” value in the test on MUC1-fs is recorded as −76.19%. Also, the “WT ECMax (%)” value with MUC1-wt was 125.82%.
For the compound `CC(C)[C@@]1(C)[C@H]2CC[C@H](C2)[C@H]1N.Cl` [Compound 246-A, (1R,2R,3S,4S)-3-isopropyl-3-methylbicyclo[2.2.1]heptan-2-amine hydrochloride], the EC50 with MUC1-fs (read-out: EC50) was 1.9 µM; in the test on MUC1-wt (read-out: WT EC50), over 16 µM. Further, the Emax in the test with MUC1-fs was −67.8. Moreover, in the test on MUC1-wt, the “WT EMax” value is on record as 20.7.
As for `CC[C@]1(Cc2ccccc2)[C@@H]2CC[C@@H](C2)[C@@H]1N` [Compound 222-P2, (1S,2S,3S,4R)-3-benzyl-3-ethylbicyclo[2.2.1]heptan-2-amine], the EC50 in the test with MUC1-fs (read-out: EC50) is over 16 µM. The Emax in the test on MUC1-fs was 19.0.
For `Cl.N[C@@H]1[C@@H]2CC[C@@H](C2)[C@]12CCC[C@@H](CO)C2` [Compound 220-P2, ((1S,2R,3R,3′R,4R)-3-aminospiro[bicyclo[2.2.1]heptane-2,1′-cyclohexan]-3′-yl)methanol hydrochloride] the same measures were over 16 µM and 9.4.
In the case of `Cl.N[C@@H]1[C@@H]2CC[C@@H](C2)[C@]12CCC[C@H](CO)C2` [Compound 220-P1, ((1S,2R,3R,3′S,4R)-3-aminospiro[bicyclo[2.2.1]heptane-2,1′-cyclohexan]-3′-yl)methanol hydrochloride], the EC50 in the test with MUC1-fs (read-out: EC50) was over 16 µM. The Emax in the test on MUC1-fs is 6.0.

The values above are taken from patent US11840495B2, “Compositions and methods related to di-substituted bicyclo[2.2.1] heptanamine-containing compounds” (The Broad Institute, Inc., priority 2020, dated 2023).
